Source: US8216777B2, “Compositions and methods for the treatment or prevention of chemoresistant neoplasia” (The Johns Hopkins University, priority 2006, dated 2012)

Tests used:
Nrf2 = assay: ARE-luciferase transcriptional reporter assay; type: cell-based, mice; conditions: Hepa cells stably transfected with pARE-luc; 5, 10, 50 μM
Description: In this example, a high throughput approach to screen different chemicals for their potency to inhibit Nrf2 activation is described. A cell based transcriptional reporter assay approach was used for the identification of agents that inhibit Nrf2 mediated transcription. Hepa cells, which are mice liver carcinoma cells, were stably transfected with the ARE-luciferase reporter vector, and plated on to 96 or […] well plates. After overnight incubation, the cells were pretreated for 1-3 hours with different compounds, and challenged with a known Nrf2 activator, sulforaphane and dibenzoylmethane (DBM). Luciferase activity was measured after 6 hours following the last treatment using a commercially available system.

Nrf2 mRNA = assay: Nrf2 transcript degradation after siRNA transfection, real time TAQMAN PCR; type: cell-based, human; conditions: A549; for relative potency among the Nrf2 siRNA duplexes: Nrf2 transcript, 24 and 48 hours
Description: To study the degradation of Nrf2 mRNA with siRNA in a time dependent manner, a pooled mixture of the generated duplexes were transfected into A549 human non-small cell lung carcinoma cell line. As a control, a non-specific scrambled siRNA duplex (SC) was used. Transfection vehicle alone was also used as control. Total RNA was isolated after 24, 48 and 72 hours. The amount of Nrf2 transcript was measured using real time TAQMAN PCR. […] These five ND duplexes were again screened using the same assay to measure amount of Nrf2 transcript as described above.
Total RNA was extracted from lung tissues and or cells using RNeasy kit (Qiagen, Valencia Calif.) and was quantified by UV absorbance spectrophotometry. The reverse transcription reaction was performed by using the Superscript First Strand Synthesis system (Invitrogen, Carlsbad Calif.) in a final volume of 20 μl containing 2 μg of total RNA, 100 ng of random hexamers, 1× reverse transcription buffer, 2.5 mM MgCl2, 1 mM dNTP, 10 units of RNaseOUT, 20 units of Superscript reverse transcriptase, and DEPC-treated water. Quantitative real time RT-PCR analyses of Human KEAP1, NRF2, GCLc, GCLm, GSR, PRDX1, GSTA3, GSTA2, NQO1, MRP1 and MRP2 were performed by using assay on demand primers and probe sets from Applied Biosystems. Assays were performed by using the ABI 7000 Taqman system (Applied Biosystems, Foster City Calif.). β-ACTIN was used for normalization.
The siRNA sequence targeting NRF2 corresponds to the coding region 1903-1921 nt (5′-[…]-3′; SEQ ID NO:27) in the NRF2 cDNA. The NRF2 siRNA duplex with the following sense and antisense sequences was used: 5′-GUAAGAAGCCAGAUGUUAAdUdU (sense; SEQ ID NO:50) and dUd[…]-5′ (antisense; SEQ ID NO:28). To confirm the specificity of the inhibition, the siCONTROL non-targeting siRNA 1 (NS siRNA; 5′[…] 3′; SEQ ID NO:29) with microarray-defined signature was used as a negative control. All of the siRNA duplexes were synthesized by Dharmacon Research, Inc. (Lafayette). Cells in the exponential growth phase were plated at a density of 0.2×10^6 cells/ml, grown for 12 h, and transfected twice at an interval of 48 h with 50 nM siRNA duplexes using Lipofectamine 2000 and OPTI-MEMI reduced serum medium (Invitrogen, Carlsbad Calif.) according to the manufacturer's recommendations. Concentrations of siRNAs were chosen on the basis of dose-response studies.

[1] = tested on: Renca renal carcinoma cells; assay: cells; type: cell-based
Excerpt: The effect of Nrf2 siRNA on the killing of Renca renal carcinoma cells was examined using etoposide, another widely used anticancer drug. To generate stable Renca cell lines that over-expressed Nrf2 siRNA and non-specific scramble siRNA (SC siRNA), the siRNA sequence was converted into short hairpin RNA (shRNA) and cloned in to a BLOCK-IT U6 RNAi Entry Vector (Invitrogen). The shRNA construct was packaged into a lentiviral vector, and transduced into Renca cell lines. Recombinants were selected with antibiotic. Renca cells stably expressing Nrf2 siRNA and non-specific LacZ siRNA were screened, and two clones expressing Nrf2 siRNA showing maximum knockdown of Nrf2 message were selected for further characterization. A cell viability assay was performed using these clones using etoposide as the chemotherapeutic drug. […] Cell viability was measured using the MTT [3-(4,5-dimethylthiazol-2-yl)-2,5-diphenyltetrazolium bromide] assay after 48 hours. Briefly, cells were transfected with 50 nM siRNAs two times within a 48 h interval and, 24 hours after the second transfection, cells were plated at a density of 7,500 cells/well in 180 μl of growth media in 96-well plates. […] After 96 h, drug cytotoxicity was evaluated by using a 3-(4,5-dimethylthiazol-2-yl)-2,5-diphenyl tetrazolium bromide (MTT; Sigma) reduction conversion assay. […]

C[S+]([O-])CCCCN=C=S (stereo not drawn) [sulforaphane]
luciferase activity (Nrf2): increase in luciferase activity

ND3: siRNA duplex, Nrf2 mRNA position 1903-1921; sense SEQ ID NO: 2 GUAAGAAGCCAGAUGUUAAUU, antisense SEQ ID NO: 6 (antisense UUAACAUCUGGCUUCUUACUU; listed as RNA, chemistry not given here)
relative potency among the Nrf2 siRNA duplexes (Nrf2 mRNA): most potent
degradation of Nrf2 message (Nrf2 mRNA; after 24 and 48 hours, individual duplexes): maximum message degradation

ND4: siRNA duplex, Nrf2 mRNA position 1563-1581; sense SEQ ID NO: 3 AUGAUGUCCAAAGAGCAGUUU, antisense SEQ ID NO: 7 (antisense ACUGCUCUUUGGACAUCAUUU; listed as RNA, chemistry not given here)
relative potency among the Nrf2 siRNA duplexes (Nrf2 mRNA): most potent

ND1: siRNA duplex, Nrf2 mRNA (NM_006164) position 1686-1704; sense SEQ ID NO: 1 CUAGAGCAAGAUUUAGAUCUU, antisense SEQ ID NO: 5 (antisense GAUCUAAAUCUUGCUCUAGUU; listed as RNA, chemistry not given here)
relative potency among the Nrf2 siRNA duplexes (Nrf2 mRNA): most potent

ND5: siRNA duplex, Nrf2 mRNA position 1485-1463; antisense SEQ ID NO: 4 UUCAUCUCUUGUGAGAUGAGCCUCC, sense SEQ ID NO: 8 (sense GGAGGCUCAUCUCACAGAGAUGAA; listed as RNA, chemistry not given here)
relative potency among the Nrf2 siRNA duplexes (Nrf2 mRNA): most potent

O=C(CC(=O)c1ccccc1)c1ccccc1 [dibenzoylmethane]
luciferase activity (Nrf2): increase in luciferase activity

COc1cc([C@@H]2c3cc4c(cc3[C@@H](O[C@@H]3O[C@@H]5CO[C@@H](C)O[C@H]5[C@H](O)[C@H]3O)[C@H]3COC(=O)[C@H]23)OCO4)cc(OC)c1O [Etoposide, etoposide]
viability at 250 µM ([1]; Renca, read-out: viable cells): ~100%
viability ([1]; mouse, 48 h, 250 μM): −60%
